Measurements reported in patent US20250171437A1 (Agios Pharmaceuticals,Inc., priority 2022, published 2025).

Target: T1, human PAH with the R408W mutation (A375 R408W cells) (Homo sapiens, UniProt P00439, R408W)
T1 construct: expressed in transfected cells
T1 sequence (P00439 1-452 R408W): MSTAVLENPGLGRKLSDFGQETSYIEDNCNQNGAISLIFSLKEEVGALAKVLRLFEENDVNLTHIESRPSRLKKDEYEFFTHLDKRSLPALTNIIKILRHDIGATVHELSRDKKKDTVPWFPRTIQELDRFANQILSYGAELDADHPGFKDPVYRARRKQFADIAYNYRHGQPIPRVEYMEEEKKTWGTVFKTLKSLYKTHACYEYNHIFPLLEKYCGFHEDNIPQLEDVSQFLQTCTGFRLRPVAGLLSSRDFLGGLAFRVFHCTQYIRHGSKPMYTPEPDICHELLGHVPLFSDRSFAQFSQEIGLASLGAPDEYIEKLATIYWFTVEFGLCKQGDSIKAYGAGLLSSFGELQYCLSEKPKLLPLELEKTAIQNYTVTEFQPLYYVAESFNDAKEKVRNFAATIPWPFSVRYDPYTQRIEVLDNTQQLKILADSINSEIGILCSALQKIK
Assay: Cell Based Phenylalanine Flux Assay
Conditions: A375 R408W cells; 24 hrs with compound, then 20 μM sepiapterin and 800 μM 13C9,15N-Phenylalanine for 4 hours; 13C-Tyrosine by LC-MS; average where tested multiple times
Summary of the method: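 LC-MS quantitation of 13C-tyrosine in media gave AC50 values. Stable A375 R408W PAH cells were preincubated 24 h with compound, then fed 800 μM labelled Phe plus 20 μM sepiapterin for 4 h. Dose curves were 10-point, tested in duplicate, averaged over repeat runs.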

| AC50 | SMILES |
| --- | --- |
| 500 to 1000 nM | O=C(c1cnn2cc(N3CCOCC3)c(Cl)cc12)N1CCc2[nH]cnc2[C@H]1c1nc2cc(F)ccc2o1 [Example 175, (S)-(5-chloro-6-morpholinopyrazolo[1,5-a]pyridin-3-yl)(4-(5-fluorobenzo[d]oxazol-2-yl)-6,7-dihydro-1H-imidazo[4,5-c]pyridin-5(4H)-yl)methanone] |
| 1000 to 5000 nM | O=C(c1cnn2cc(N3CCOCC3)c(Cl)cc12)N1CCc2[nH]cnc2[C@@H]1c1nc2cc(F)ccc2o1 [Example 176, (R)-(5-chloro-6-morpholinopyrazolo[1,5-a]pyridin-3-yl)(4-(5-fluorobenzo[d]oxazol-2-yl)-6,7-dihydro-1H-imidazo[4,5-c]pyridin-5(4H)-yl)methanone] |
| ≤ 500 nM | Nc1cn2ncc(C(=O)N3CCc4[nH]cnc4[C@H]3c3nc4cc(F)ccc4o3)c2cc1Cl [Example 177, (S)-(6-amino-5-chloropyrazolo[1,5-a]pyridin-3-yl)(4-(5-fluorobenzo[d]oxazol-2-yl)-6,7-dihydro-1H-imidazo[4,5-c]pyridin-5(4H)-yl)methanone] |
| ≥ 5000 nM | Nc1cn2ncc(C(=O)N3CCc4[nH]cnc4[C@@H]3c3nc4cc(F)ccc4o3)c2cc1Cl [Example 178, (R)-(6-amino-5-chloropyrazolo[1,5-a]pyridin-3-yl)(4-(5-fluorobenzo[d]oxazol-2-yl)-6,7-dihydro-1H-imidazo[4,5-c]pyridin-5(4H)-yl)methanone] |
| 500 to 1000 nM | O=C(c1ocnc1CF)N1CCc2[nH]cnc2[C@H]1c1nc2cc(F)ccc2o1 [Example 179, (S)-(4-(5-fluorobenzo[d]oxazol-2-yl)-6,7-dihydro-1H-imidazo[4,5-c]pyridin-5(4H)-yl)(4-(fluoromethyl)oxazol-5-yl)methanone] |
| 1000 to 5000 nM | O=C(c1ocnc1CF)N1CCc2[nH]cnc2[C@@H]1c1nc2cc(F)ccc2o1 [Example 180, (R)-(4-(5-fluorobenzo[d]oxazol-2-yl)-6,7-dihydro-1H-imidazo[4,5-c]pyridin-5(4H)-yl)(4-(fluoromethyl)oxazol-5-yl)methanone] |
| ≤ 500 nM | CN1CCN(c2cn3ncc(C(=O)N4CCc5[nH]cnc5[C@H]4c4nc5cc(F)ccc5o4)c3cc2Cl)CC1 [Example 181, (S)-(5-chloro-6-(4-methylpiperazin-1-yl)pyrazolo[1,5-a]pyridin-3-yl)(4-(5-fluorobenzo[d]oxazol-2-yl)-6,7-dihydro-1H-imidazo[4,5-c]pyridin-5(4H)-yl)methanone] |
| 1000 to 5000 nM | CN1CCN(c2cn3ncc(C(=O)N4CCc5[nH]cnc5[C@@H]4c4nc5cc(F)ccc5o4)c3cc2Cl)CC1 [Example 182, (R)-(5-chloro-6-(4-methylpiperazin-1-yl)pyrazolo[1,5-a]pyridin-3-yl)(4-(5-fluorobenzo[d]oxazol-2-yl)-6,7-dihydro-1H-imidazo[4,5-c]pyridin-5(4H)-yl)methanone] |
| 500 to 1000 nM | O=C(c1cnn(CC(F)(F)F)c1C(F)F)N1CCc2[nH]cnc2[C@H]1c1nc2cc(F)ccc2o1 [Example 183, (S)-(5-(difluoromethyl)-1-(2,2,2-trifluoroethyl)-1H-pyrazol-4-yl)(4-(5-fluorobenzo[d]oxazol-2-yl)-6,7-dihydro-1H-imidazo[4,5-c]pyridin-5(4H)-yl)methanone] |
| 1000 to 5000 nM | O=C(c1cnn(CC(F)(F)F)c1C(F)F)N1CCc2[nH]cnc2[C@@H]1c1nc2cc(F)ccc2o1 [Example 184, (R)-(5-(difluoromethyl)-1-(2,2,2-trifluoroethyl)-1H-pyrazol-4-yl)(4-(5-fluorobenzo[d]oxazol-2-yl)-6,7-dihydro-1H-imidazo[4,5-c]pyridin-5(4H)-yl)methanone] |
| 500 to 1000 nM | Cc1nc(C(C)(C)C#N)oc1C(=O)N1CCc2[nH]cnc2[C@H]1c1nc2cc(F)ccc2o1 [Example 185, (S)-2-(5-(4-(5-fluorobenzo[d]oxazol-2-yl)-4,5,6,7-tetrahydro-1H-imidazo[4,5-c]pyridine-5-carbonyl)-4-methyloxazol-2-yl)-2-methylpropanenitrile] |
| 1000 to 5000 nM | Cc1nc(C(C)(C)C#N)oc1C(=O)N1CCc2[nH]cnc2[C@@H]1c1nc2cc(F)ccc2o1 [Example 186, (R)-2-(5-(4-(5-fluorobenzo[d]oxazol-2-yl)-4,5,6,7-tetrahydro-1H-imidazo[4,5-c]pyridine-5-carbonyl)-4-methyloxazol-2-yl)-2-methylpropanenitrile] |
| ≤ 500 nM | CC(C)(O)c1nc(C(F)F)c(C(=O)N2CCc3[nH]cnc3[C@H]2c2nc3ccc(F)cc3o2)o1 [Example 187, (S)-(4-(difluoromethyl)-2-(2-hydroxypropan-2-yl)oxazol-5-yl)(4-(6-fluorobenzo[d]oxazol-2-yl)-6,7-dihydro-1H-imidazo[4,5-c]pyridin-5(4H)-yl)methanone] |
| 1000 to 5000 nM | CC(C)(O)c1nc(C(F)F)c(C(=O)N2CCc3[nH]cnc3[C@@H]2c2nc3ccc(F)cc3o2)o1 [Example 188, (R)-(4-(difluoromethyl)-2-(2-hydroxypropan-2-yl)oxazol-5-yl)(4-(6-fluorobenzo[d]oxazol-2-yl)-6,7-dihydro-1H-imidazo[4,5-c]pyridin-5(4H)-yl)methanone] |
| 500 to 1000 nM | O=C(c1ccnn1C(F)F)N1CCc2[nH]cnc2[C@H]1c1nc2ccc(F)cc2o1 [Example 189, (S)-(1-(difluoromethyl)-1H-pyrazol-5-yl)(4-(6-fluorobenzo[d]oxazol-2-yl)-6,7-dihydro-1H-imidazo[4,5-c]pyridin-5(4H)-yl)methanone] |
| 1000 to 5000 nM | O=C(c1ccnn1C(F)F)N1CCc2[nH]cnc2[C@@H]1c1nc2ccc(F)cc2o1 [Example 190, (R)-(1-(difluoromethyl)-1H-pyrazol-5-yl)(4-(6-fluorobenzo[d]oxazol-2-yl)-6,7-dihydro-1H-imidazo[4,5-c]pyridin-5(4H)-yl)methanone] |
| 500 to 1000 nM | Cn1cc(-c2nnc(C(=O)N3CCc4[nH]cnc4[C@H]3c3nc4cccc(F)c4o3)o2)cn1 [Example 191, (S)-(4-(7-fluorobenzo[d]oxazol-2-yl)-6,7-dihydro-1H-imidazo[4,5-c]pyridin-5(4H)-yl)(5-(1-methyl-1H-pyrazol-4-yl)-1,3,4-oxadiazol-2-yl)methanone] |
| 1000 to 5000 nM | Cn1cc(-c2nnc(C(=O)N3CCc4[nH]cnc4[C@@H]3c3nc4cccc(F)c4o3)o2)cn1 [Example 192, (R)-(4-(7-fluorobenzo[d]oxazol-2-yl)-6,7-dihydro-1H-imidazo[4,5-c]pyridin-5(4H)-yl)(5-(1-methyl-1H-pyrazol-4-yl)-1,3,4-oxadiazol-2-yl)methanone] |
| ≤ 500 nM | CC(C)(O)c1nc(C(F)F)c(C(=O)N2CCc3[nH]cnc3[C@H]2c2nc3cccc(F)c3o2)o1 [Example 193, (S)-(4-(difluoromethyl)-2-(2-hydroxypropan-2-yl)oxazol-5-yl)(4-(7-fluorobenzo[d]oxazol-2-yl)-6,7-dihydro-1H-imidazo[4,5-c]pyridin-5(4H)-yl)methanone] |
| ≤ 500 nM | CC(C)(O)c1nc(C(F)F)c(C(=O)N2CCc3[nH]cnc3[C@@H]2c2nc3cccc(F)c3o2)o1 [Example 194, (R)-(4-(difluoromethyl)-2-(2-hydroxypropan-2-yl)oxazol-5-yl)(4-(7-fluorobenzo[d]oxazol-2-yl)-6,7-dihydro-1H-imidazo[4,5-c]pyridin-5(4H)-yl)methanone] |
| ≤ 500 nM | O=C(c1ccnn1C(F)F)N1CCc2[nH]cnc2[C@H]1c1nc2cccc(F)c2o1 [Example 195, (S)-(1-(difluoromethyl)-1H-pyrazol-5-yl)(4-(7-fluorobenzo[d]oxazol-2-yl)-6,7-dihydro-1H-imidazo[4,5-c]pyridin-5(4H)-yl)methanone] |
| 1000 to 5000 nM | O=C(c1ccnn1C(F)F)N1CCc2[nH]cnc2[C@@H]1c1nc2cccc(F)c2o1 [Example 196, (R)-(1-(difluoromethyl)-1H-pyrazol-5-yl)(4-(7-fluorobenzo[d]oxazol-2-yl)-6,7-dihydro-1H-imidazo[4,5-c]pyridin-5(4H)-yl)methanone] |
| 500 to 1000 nM | Cn1cc(-c2nnc(C(=O)N3CCc4[nH]cnc4[C@H]3c3nc4c(F)cccc4o3)o2)cn1 [Example 197, (S)-(4-(4-fluorobenzo[d]oxazol-2-yl)-6,7-dihydro-1H-imidazo[4,5-c]pyridin-5(4H)-yl)(5-(1-methyl-1H-pyrazol-4-yl)-1,3,4-oxadiazol-2-yl)methanone] |
| 1000 to 5000 nM | Cn1cc(-c2nnc(C(=O)N3CCc4[nH]cnc4[C@@H]3c3nc4c(F)cccc4o3)o2)cn1 [Example 198, (R)-(4-(4-fluorobenzo[d]oxazol-2-yl)-6,7-dihydro-1H-imidazo[4,5-c]pyridin-5(4H)-yl)(5-(1-methyl-1H-pyrazol-4-yl)-1,3,4-oxadiazol-2-yl)methanone] |
| ≤ 500 nM | CC(C)(O)c1nc(C(F)F)c(C(=O)N2CCc3[nH]cnc3[C@H]2c2nc3c(F)cccc3o2)o1 [Example 199, (S)-(4-(difluoromethyl)-2-(2-hydroxypropan-2-yl)oxazol-5-yl)(4-(4-fluorobenzo[d]oxazol-2-yl)-6,7-dihydro-1H-imidazo[4,5-c]pyridin-5(4H)-yl)methanone] |
| 1000 to 5000 nM | CC(C)(O)c1nc(C(F)F)c(C(=O)N2CCc3[nH]cnc3[C@@H]2c2nc3c(F)cccc3o2)o1 [Example 200, (R)-(4-(difluoromethyl)-2-(2-hydroxypropan-2-yl)oxazol-5-yl)(4-(4-fluorobenzo[d]oxazol-2-yl)-6,7-dihydro-1H-imidazo[4,5-c]pyridin-5(4H)-yl)methanone] |
